# Measurements as given in US20020041897A1, “Compositions for sustained release of antineoplastic taxanes, and methods of making and using the same” (priority 2000, published 2002).
# Assay: Plasma concentrations of paclitaxel as a function of dose after intraperitoneal administration to dogs
# Settings: dog
# Protocol: (30%) microspheres were administered intraperitoneally to dogs at doses of 90, 120, 150, 180 and 210 mg/kg; paclitaxel was administered at doses of 9 mg/kg and 12 mg/kg to other dogs. Each dose group comprised one female dog. Plasma samples were taken from each dog at various time points. Samples were analyzed using a LC/MS/MS method. Results are depicted in FIG. 10.
# Following administration of 90 and 120 mg/kg doses of […] (30%) microspheres, plasma samples were collected through 63 days. At doses of 150 and 180 mg/kg, the last sample was obtained at 35 days. The last sampling time for the 210 mg/kg dose was 28 days.
smiles,measurement,setting,value
CC(=O)O[C@H]1C(=O)[C@@]2(C)[C@H]([C@H](OC(=O)c3ccccc3)[C@]3(O)C[C@H](OC(=O)[C@H](O)[C@@H](NC(=O)c4ccccc4)c4ccccc4)C(C)=C1C3(C)C)[C@]1(OC(C)=O)CO[C@@H]1C[C@@H]2O [paclitaxel],toxicity outcome,"in vivo, ip, 12 mg/kg",euthanized before the completion of the study due to toxicity
same,decline of plasma paclitaxel concentration,"intraperitoneal, 9 mg/kg",declined in a biphasic manner
same,time at which maximum plasma paclitaxel concentration was reached,"intraperitoneal, 9 mg/kg",0.5 days
same,time post dose beyond which plasma paclitaxel could not be detected,"intraperitoneal, 9 mg/kg",≤ 7 days
